≈ marks a conversion by molar mass, not a printed value. Where “and” joins values, the source holds several entries; their conditions need not be identical. Equal entries are not always repeated. Where two headings read alike, the source gives them in different places.
What was measured:
[1] = Pharmacokinetics, biliary excretion and metabolism of compound K in bile cannulated and non-bile cannulated rats; format: in vivo, SD rats; settings: for AUC(0-inf) / half-life / AUC(0-t) / C0: SD, rat, plasma, iv; for AUC(0-t): read-out: AUC12 h; for C0: read-out: C0 (initial plasma concentration)
Protocol: SD rats were randomly divided into two groups: the non-bile cannulated control group and the bile cannulated group. For the bile cannulated rats, the femoral artery, femoral vein, and bile duct were cannulated with polyethylene tubes (PE-50 and PE-10; Jungdo, Seoul, Korea) under light anesthesia with isoflurane. For the control group, the femoral artery and femoral vein were cannulated with PE-50. Compound K was injected intravenously via the femoral vein at 2 mg/kg. Blood samples (approximately 200 µL) were collected from the femoral artery at 0, 0.25, 0.5, 1, 2, 4, and 8 h after the compound K injection. After each blood sampling, normal saline was injected into the femoral vein to compensate for blood loss. Bile samples were collected every 2 h for a total of 12 h. The blood samples were centrifuged at 16,000× g for 10 min, and 50 μL aliquots of plasma and 50 μL aliquots of bile were stored at −80 °C until the compound K analysis. In the non-bile cannulated rats, the complete contents of the entire gastrointestinal tract were collected using a […] filled with 30 mL pre-warmed saline. The contents were homogenized with tissue homogenizer, and 50 μL aliquots of intestinal fecal homogenates were stored at −80 °C until the analysis. The 50 μL samples of plasma, urine, 10% fecal homogenates, bile, and intestinal fecal homogenates were each mixed with 60 μL of IS (20 ng/mL 13C-caffeine in water) and 600 μL of methyl tert-butyl ether (MTBE). The mixtures were vortexed vigorously for 10 min and centrifuged at 16,000× g for 5 min. After centrifugation, the samples were frozen at −80 °C for 2 h. […] The residue was reconfigured with 200 μL of 80% methanol consisting of 0.1% formic acid, and a 10 μL aliquot was injected into the liquid chromatography–tandem mass spectrometry (LC–MS/MS) system. Compound K and PPD concentrations were analyzed using a modified LC-MS/MS method of Jin et al. with an Agilent 6430 triple quadrupole LC-MS/MS system (Agilent, Wilmington, DE, USA). […] The mobile phase consisted of 0.1% formic acid in water (8%) and 0.1% formic acid in methanol (92%) at a flow rate of 0.15 mL/min. Pharmacokinetic parameters were estimated using non-compartmental methods (WinNonlin version 2.0, Pharsight Co., Certara, NJ, USA).

[2] = set-up: method as in PMID 28955238; settings: humans, cited from earlier work
[3] = set-up: method as in PMID 16302287, PMID 32148404, PMID 30013338, PMID 26680316; settings: cited from earlier work
Caco-2 cells = test system: Caco-2 cells; set-up: method as in PMID 16302287, PMID 32148404, PMID 30013338, PMID 26680316; settings: cited from earlier work
[4] = Pharmacokinetic study after intravenous compound K (2 mg/kg) in SD rats: plasma, feces, urine; settings: for Recovery48 h Feces: over 48 h (Table 4)
[5] = Pharmacokinetic study after intravenous compound K (2 mg/kg) in ICR mice: plasma, feces, urine
[6] = Tissue distribution study after intravenous compound K (2 mg/kg) in SD rats; format: in vivo; settings: compound K IV 2 mg/kg
Protocol: (§1) ICR mice and SD rats received compound K intravenously at a single dose of 2 mg/kg via tail vein and were returned to the metabolic cage with water and chow ad libitum. The animals were euthanized and blood samples (approximately 200 µL) were collected from the abdominal artery at 0.17, 0.5, 2, 4, 8, and 24 h after intravenous injection. The liver, kidney, brain, heart, lung, spleen, and testis were immediately excised, gently washed with ice-cold saline, and weighed. The tissue samples were homogenized with 4 volumes of saline. Aliquots (50 μL) of plasma and 20% tissue homogenates were stored at –80 °C until the analysis of compound K.
(§2) The plasma samples and 20% tissue homogenates samples were each mixed with 60 μL of IS (20 ng/mL 13C-caffeine in water) and 600 μL of MTBE. The mixtures were vortexed vigorously for 10 min and centrifuged at 16,000× g for 5 min. After centrifugation, the samples were frozen at −80 °C for 2 h. The upper layer was transferred to a clean tube and evaporated to dryness under a nitrogen stream. The residue was reconfigured with 200 μL of 80% methanol consisting of 0.1% formic acid, and a 10 μL aliquot was injected into the LC-MS/MS system.
(§3) Compound K and PPD concentrations were analyzed using a modified LC-MS/MS method of Jin et al. with an Agilent 6430 triple quadrupole LC-MS/MS system (Agilent, Wilmington, DE, USA). […]

[7] = Tissue distribution study after intravenous compound K (2 mg/kg) in ICR mice; format: in vivo; settings: compound K IV 2 mg/kg
Protocol: as §1, §2, §3

Oatp transporters [8] = assay: Inhibition of hepatic uptake of compound K by rifampin pre-treatment in SD rats; format: in vivo; settings: rifampin 20 mg/kg PO 1 h before compound K IV 2 mg/kg, 0.5 and 2 h
Protocol: (§4) To investigate the effect of rifampin (a representative inhibitor of the organic anion-transporting polypeptide (Oatp) transporters) on the hepatic distribution of compound K, ICR mice and SD rats were randomly divided into either control or rifampin groups. The rifampin group was orally administered with rifampin solution (20 mg/kg, dissolved in DMSO: saline = 2:8, v/v) and the control group received only the vehicle via oral gavage. One hour after rifampin treatment, mice and rats received compound K intravenously at a single dose of 2 mg/kg via tail vein. The animals were euthanized and blood samples (approximately 200 µL) were collected from the abdominal artery at 0.5 and 2 h after intravenous injection. The liver tissues were immediately excised, gently washed with ice-cold saline, and homogenized with 4 volumes of saline. Aliquots (50 μL) of plasma and 20% liver homogenates were stored at −80 °C until the analysis of compound K.
as §2, with “The residue was reconfigured with 200 μL of 80% methanol consisting of 0.1% formic acid, and a 10 μL aliquot was injected into the LC-MS/MS system.” left out

Oatp transporters [9] = assay: Inhibition of hepatic uptake of compound K by rifampin pre-treatment in ICR mice; format: in vivo; settings: rifampin 20 mg/kg PO 1 h before compound K IV 2 mg/kg, 0.5 and 2 h
Protocol: as §4
as §2, with “The residue was reconfigured with 200 μL of 80% methanol consisting of 0.1% formic acid, and a 10 μL aliquot was injected into the LC-MS/MS system.” left out

[10] = cited from earlier work
[11] = set-up: method as in PMID 16302287; settings: rats, cited from earlier work
P-glycoprotein (P-gp) = test system: P-glycoprotein (P-gp); set-up: method as in PMID 22584255; settings: single oral dose 10 mg/kg; cited from earlier work
[12] = set-up: method as in PMID 22584255, PMID 30013338, PMID 26680316; settings: cited from earlier work
[13] = single oral 200 mg compound K tablet, fasting
[14] = rat, after compound K IV 2 mg/kg
[15] = rats, after compound K IV 2 mg/kg
[16] = ICR, mouse, plasma, iv, 2 mg/kg
[17] = mice, after compound K IV 2 mg/kg
[18] = mouse, after compound K IV 2 mg/kg, over 48 h (Table 4)
[19] = 2 mg/kg, bile cannulated rat, compound K IV 2 mg/kg
[20] = 2 mg/kg, non-bile cannulated rat, compound K IV 2 mg/kg

CC(C)=CCCC(C)(O)C1CCC2(C)C1C(O)CC1C3(C)CCC(O)C(C)(C)C3CCC12C [PPD, 20(S)-protopanaxadiol]
presence in bile samples collected over 12 h ([1]; bile-cannulated rats, after compound K IV 2 mg/kg): without PPD
detection in plasma samples ([1]; bile-cannulated rats, after compound K IV 2 mg/kg, 2 mg/kg): could not be detected
detection in plasma samples at 8 h ([1]; control rats (non-bile cannulated), after compound K IV 2 mg/kg, not present in 2 h sample): detected
amount in intestinal fecal samples, 12 h compared to 2 h ([1]; rats without bile cannulation, after compound K IV 2 mg/kg): greater in the 12 h samples compared to the 2 h samples
Cmax [2, 13]: 5.7 ng/mL
Tmax [2, 13]: 24.5 h
AUC ratio of PPD to compound K ([2]; single oral 200 mg compound K tablet): 0.04
LogP value [3]: 5.53
permeability (Caco-2 cells): 1.15e-06 cm/s
concentration at 48 h ([4]; SD, rat, plasma, iv, 2 mg/kg): < 5 ng/mL
recovery of PPD relative to that of compound K in feces ([4]; rat feces, after compound K IV 2 mg/kg): 3.4 fold
metabolic ratio (PPD to compound K ratio) in plasma ([4]; rat plasma, after compound K IV 2 mg/kg): 0.2–1.6
Recovery48 h Feces [4, 14]: 46.6 ± 4.9 % of Dose
detection in plasma and fecal samples [4, 15]: detected
detection in urine samples [4, 15]: not detected
concentration at 48 h [5, 16]: < 5 ng/mL
detection in plasma and fecal samples [5, 17]: detected
detection in urine samples [5, 17]: not detected
recovery of PPD relative to that of compound K in feces ([5]; mouse feces, after compound K IV 2 mg/kg): 1.2 fold
metabolic ratio (PPD to compound K ratio) in plasma ([5]; mouse plasma, after compound K IV 2 mg/kg): 0.02–0.08
Recovery48 h Feces [5, 18]: 34.4 ± 5.8 % of Dose

CC(C)=CCCC(C)(OC1OC(CO)C(O)C(O)C1O)C1CCC2(C)C1C(O)CC1C3(C)CCC(O)C(C)(C)C3CCC12C [compound K, 20-O-beta-(D-Glucopyranosyl)-20(S)-protopanaxadiol]
AUC ratios of other tissues (kidney, heart, lung, pancreas, testis, brain) to plasma [6]: much lower than the liver/plasma AUC ratio
Kp ([6]; male, SD, rat, liver (relative to plasma), 0.17-24 h, read-out: liver to plasma AUC ratio): 11.1
AUC ratios of other tissues (kidney, heart, lung, pancreas, testis, brain) to plasma [7]: much lower than the liver/plasma AUC ratio
Kp ([7]; male, ICR, mouse, liver (relative to plasma), 0.17-24 h, read-out: liver to plasma AUC ratio): 16.7
liver to plasma concentration ratios with rifampin pre-treatment versus control (Oatp transporters [8]): decreased
plasma concentration of compound K with rifampin pre-treatment versus control (Oatp transporters [8]): increased
liver to plasma concentration ratios with rifampin pre-treatment versus control (Oatp transporters [9]): decreased
plasma concentration of compound K with rifampin pre-treatment versus control (Oatp transporters [9]): increased
AUC(0-inf) [1, 19]: 235 ± 126 ng·h/mL
half-life [1, 19]: 0.78 ± 0.11 h
AUC(0-t) [1, 19]: 211 ± 87.3 ng·h/mL
C0 [1, 19]: 436 ± 326 ng/mL
AUC(0-inf) [1, 20]: 517 ± 249 ng·h/mL
half-life [1, 20]: 2.4 ± 0.61 h
AUC(0-t) [1, 20]: 496 ± 253 ng·h/mL
C0 [1, 20]: 451 ± 192 ng/mL
Bile12 h (biliary excretion) ([1]; bile cannulated rat, compound K IV 2 mg/kg, bile collected for 12 h): 39.1 ± 5.7 % of dose
elimination constant ([1]; bile-cannulated rats, one-compartment model, estimated using 5 points, r^2 0.92): 0.90 h⁻¹
elimination constant ([1]; non-bile cannulated (control) rats, estimated using 3 points, r^2 0.94): 0.29 h⁻¹
increase of AUC by high-fat meal compared with fasting group ([2]; 200 mg compound K tablet): 2.2 fold
increase of Cmax by high-fat meal compared with fasting group ([2]; 200 mg compound K tablet): 2.0 fold
Cmax ([10]; 12 Japanese subjects, single oral fermented ginseng tablet (274.4 mg total; 2.2 mg as compound K)): 41.5 ng/mL
Cmax ([10]; subjects given non-fermented Korean red ginseng extract (3 g total; 0 mg as compound K)): 3.2 to 24.8 ng/mL
mean Cmax ([10]; subjects given oral fermented Korean red ginseng (3 g total; 10.9 mg as compound K)): 254.5 ng/mL
AUC increase ([11]; intravenous injection, dose range 1–10 mg/kg (dose increase 10-fold)): 11.6 fold
AUC increase ([11]; oral administration, dose range 5–20 mg/kg (dose increase four-fold)): 75.8 fold
AUC increase in P-gp knock-out mice compared to wild-type mice (P-glycoprotein (P-gp)): 23.5 fold
LogP value [3]: 3.85
permeability (Caco-2 cells): 0.5–2 × 10^−6 cm/s
aqueous solubility [12]: 33 µg/mL (≈ 53 µM)
AUC(0-inf) ([4]; SD, rat, plasma, iv, 2 mg/kg): 670 ± 284 ng·h/mL
AUC(0-t) ([4]; SD, rat, plasma, iv, 2 mg/kg): 639 ± 299 ng·h/mL
C0 ([4]; SD, rat, plasma, iv, 2 mg/kg): 75.3 ± 23.3 ng/mL
MRT ([4]; SD, rat, plasma, iv, 2 mg/kg): 8.9 ± 0.4 h
Vd ([4]; SD, rat, plasma, iv, 2 mg/kg): 31.8 ± 3.1 L/kg
clearance ([4]; SD, rat, plasma, iv, 2 mg/kg): 59 ± 21.8 mL/min/kg
half-life ([4]; SD, rat, plasma, iv, 2 mg/kg): 7.3 ± 0.4 h
Recovery48 h Feces [4, 14]: 13.8 ± 7.1 % of Dose
Feces48 h (fecal recovery) ([4]; rat, compound K IV 2 mg/kg, 48 h, 2 mg/kg): 13.8 % of dose and ~13.8 ± 7.1 % of dose
CL and Vd, fold larger in rats than in mice ([4]; rats versus mice, compound K IV 2 mg/kg): about five-fold larger
AUC(0-t) [5, 16]: 3760 ± 1640 ng·h/mL
C0 [5, 16]: 400 ± 137 ng/mL
MRT [5, 16]: 11.8 ± 2 h
Vd [5, 16]: 7.08 ± 2.6 L/kg
clearance [5, 16]: 10.4 ± 4.9 mL/min/kg
half-life [5, 16]: 11.4 ± 1.5 h
Recovery48 h Feces [5, 18]: 28.4 ± 5.9 % of Dose
Recovery48 h Urine [5, 18]: 0.02 ± 0.01 % of Dose

Reference: paper PMC7076525, “Pharmacokinetics and Intestinal Metabolism of Compound K in Rats and Mice” (Pharmaceutics, 2020)
